{"source": "patent US11952349B2", "about": "“Anti-cancer nuclear hormone receptor-targeting compounds” (Nuvation Bio Inc., priority 2019, dated 2024)", "key": {"Human recombinant PARP2": {"target": "Human recombinant PARP2 (Homo sapiens, UniProt Q9UGN5)", "sequence (Q9UGN5 whole entry)": "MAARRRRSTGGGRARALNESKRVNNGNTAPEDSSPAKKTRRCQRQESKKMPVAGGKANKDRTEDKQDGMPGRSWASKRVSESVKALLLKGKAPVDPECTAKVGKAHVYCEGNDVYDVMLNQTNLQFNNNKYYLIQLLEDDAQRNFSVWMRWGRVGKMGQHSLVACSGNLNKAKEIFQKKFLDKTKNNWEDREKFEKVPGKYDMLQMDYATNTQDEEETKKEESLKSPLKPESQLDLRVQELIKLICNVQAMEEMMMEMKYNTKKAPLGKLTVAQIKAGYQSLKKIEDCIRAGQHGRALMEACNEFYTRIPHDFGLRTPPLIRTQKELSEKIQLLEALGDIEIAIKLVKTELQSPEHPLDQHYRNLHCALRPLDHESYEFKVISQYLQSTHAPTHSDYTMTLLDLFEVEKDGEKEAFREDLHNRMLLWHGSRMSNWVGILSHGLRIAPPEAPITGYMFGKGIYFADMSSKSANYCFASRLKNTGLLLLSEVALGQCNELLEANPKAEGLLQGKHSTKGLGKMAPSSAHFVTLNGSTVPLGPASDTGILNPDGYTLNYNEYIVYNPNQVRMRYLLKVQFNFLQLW", "assay": "RBC HotSpot PARP2 assay (radioisotope-based filter binding)", "format": "biochemical", "settings": "Table 9; read-out: PARP2", "protocol": "The following methods are for evaluating the in vitro biology properties of the test articles. • a. RBC HotSpot Poly(ADP-ribose) Polymerases 1 (PARP1) and Poly(ADP-ribose) Polymerases 2 (PARP2) Assays: The assay was conducted at Reaction Biology Corporation (RBC; Malvern, PA). The assay principle is radioisotope-based filter binding assay where incorporation of radioisotope-labeled NAD^+ into the substrate captured on filter is detected after washout free NAD^+. Data were analyzed using Excel and GraphPad Prism software for IC50 curve fits. Each assay was conducted with PJ34 as a positive control. PARP1 assay: Human recombinant PARP1 at a final concentration of 2.5 nM was combined with histone H4 (20 μM) and test articles at various concentrations in reaction buffer (50 mM Tris-HCL, pH 8.0, 50 mM NaCl, 10 mM MgCl2, 1 mM DTT, 1% DMSO, and 20 μg/mL activated DNA). The solution was inoculated for 20 min at room temperature and the reaction initiated by adding [adenylate-^32P]-Nicotinamide Adenine Dinucleotide, ^32P-NAD^+ at a final concentration of 10 μM. After incubation for 2 hrs at room temperature, the reaction mixture was filtered and washed with 0.75% phosphoric acid for radioactivity detection. • ii. PARP2 assay: Human recombinant PARP2 at a final concentration of 2.5 nM was combined with histone H3 (20 μM) and test articles at various concentrations in reaction buffer (50 mM Tris-HCL, pH 8.0, 50 mM NaCl, 10 mM MgCl2, 1 mM DTT, 1% DMSO, and 20 μg/mL activated DNA). The solution was inoculated for 20 min at room temperature and the reaction was initiated by adding [adenylate-^32P]-Nicotinamide Adenine Dinucleotide, ^32P-NAD^+ at a final concentration of 10 μM. After incubation for 2 hrs at room temperature, the reaction mixture was filtered and washed with 0.75% phosphoric acid for radioactivity detection. • b. AR binding assay: AR in LNCaP cytosol was used for determining the binding affinity of test articles and the reference compound—progesterone (Sigma, Cat: E2785, St. Louis, MO). IC50 s were determined using 8 concentrations/compound. Cytosol is plated at 200 μg/well (100 μL) into a 96-well conical polypropylene plate (Agilent, Cat: 5042-1385, Santa Clara, CA) and mixed with 3 μL of test compound. After adding 100 μL of ^3H-methyltrienolone (PerkinElmer, Cat: NET590250UC, San Jose, CA), the plate was sealed and shaken at 300 rpm at 4° C. for 24 hours. Post incubation, 100 μL of radioligand adsorption buffer containing 10 mM Tris-HCl, pH 7.4; 1.5 mM EDTA; 1 mM DTT; 0.25% charcoal; 0.0025% dextran was added to individual wells. Plate was shaken for 15 min at 4° C. followed by centrifugation at 3000 rpm for 30 min at 4° C. 150 μL of supernatant is transferred into scint-tube (PerkinElmer, Cat: 6000192) and mixed with 2 mL of Ultima Gold Cocktail (PerkinElmer, Cat: 6013329). Radioactivity is counted using a TriCarb 2910 TR scintillation counter (PerkinElmer). Inhibition of the radioactivity by test articles was calculated using the equation below: % Inhibition=(1−(Assay well−Average_LC)/(Average_HC−Average_LC))×100%. • IC50 values (Table 6) were calculated and graphed using the model “log(inhibitor) vs. response—Variable slope” included in GraphPad Prism 5 (San Diego, CA). The Ki values were further calculated using the equation below where [L] is the radioligand concentration (1 nM) used in this study. Kd value was 0.332 nM. Ki=IC50/(1+[L]/Kd) • c. AR transactivation: Human AR cloned into a CMV vector backbone is used for the transactivation study. HEK-293 cells are plated at 80,000 cells per well of a 24 well plate in DME+5% csFBS. Twenty four hours later, the cells are transfected using Lipofectamine (Invitrogen, Carlsbad, CA) with 0.25 μg GRE-LUC, 0.01 μg CMV-LUC (renilla luciferase) and 25 ng of the AR in OPTIMEM medium. The cells are treated 24 hrs after transfection with various ligands (10^−12 to 10^−5 M final concentrations) and luciferase assay performed 48 hours after transfection. […]"}, "[1]": {"target": "T1, full-length androgen receptor (Homo sapiens, UniProt P10275)", "T1 construct": "HEK293 cells stably expressing the full-length androgen receptor; expressed in transfected cells", "T1 sequence (P10275 1-920)": "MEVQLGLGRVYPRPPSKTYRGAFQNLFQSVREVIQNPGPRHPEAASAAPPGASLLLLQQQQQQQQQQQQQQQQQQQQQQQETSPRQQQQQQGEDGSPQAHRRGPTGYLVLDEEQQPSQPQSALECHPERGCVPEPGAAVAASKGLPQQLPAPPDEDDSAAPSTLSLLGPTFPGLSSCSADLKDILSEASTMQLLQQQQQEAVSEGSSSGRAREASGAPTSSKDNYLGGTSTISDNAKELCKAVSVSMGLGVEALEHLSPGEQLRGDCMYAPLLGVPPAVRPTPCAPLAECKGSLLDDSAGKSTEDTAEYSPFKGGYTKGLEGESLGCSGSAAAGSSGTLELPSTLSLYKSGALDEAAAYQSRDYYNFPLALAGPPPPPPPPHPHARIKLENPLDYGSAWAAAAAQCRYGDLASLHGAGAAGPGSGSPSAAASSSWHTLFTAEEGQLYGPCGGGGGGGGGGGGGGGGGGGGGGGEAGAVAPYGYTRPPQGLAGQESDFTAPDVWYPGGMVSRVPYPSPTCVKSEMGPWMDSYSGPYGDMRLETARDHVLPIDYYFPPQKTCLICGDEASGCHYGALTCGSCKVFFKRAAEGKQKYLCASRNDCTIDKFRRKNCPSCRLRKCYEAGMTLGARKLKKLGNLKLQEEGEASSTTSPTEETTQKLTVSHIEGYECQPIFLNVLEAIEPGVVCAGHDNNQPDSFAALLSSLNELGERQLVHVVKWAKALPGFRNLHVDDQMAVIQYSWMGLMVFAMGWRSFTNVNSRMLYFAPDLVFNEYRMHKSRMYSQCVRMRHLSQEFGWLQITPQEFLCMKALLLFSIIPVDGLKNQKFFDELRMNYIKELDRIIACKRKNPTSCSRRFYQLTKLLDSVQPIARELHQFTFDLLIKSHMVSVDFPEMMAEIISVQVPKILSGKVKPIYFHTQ", "assay": "AR antagonism assay (HEK293, testosterone 1 nM, Steady-glo)", "format": "cell-based", "settings": "Table 7; testosterone 1 nM; read-out: AR antagonism", "protocol": "AR antagonism assay: To evaluate AR antagonist activity, test compound was added to the assay plate (top dose 10 μM, 3 fold serial dilution, 10 point dose response). HEK293 cells stably expressing the full-length androgen receptor were seeded at a density of 20000 cells/well in the assay plate. The assay plate was then incubated at room temperature for 10 minutes and at 37° C., 5% CO2 for 20 minutes. Testosterone was added to the assay plate at 1 nM final concentration and the assay plate was incubated at 37° C., 5% CO2 for 20 h. After the incubation period, Steady-glo was added to the assay plate and mixed at room temperature for 20 minutes on an orbital shaker, before reading out on the EnVision plate reader."}}}
{"smiles": "C[C@]12Cc3cn[nH]c3C[C@@H]1CC[C@@H]1[C@@H]2CC[C@]2(C)[C@@H](OCCCCCC(=O)N3CCN(C(=O)c4cc(Cc5n[nH]c(=O)c6ccccc56)ccc4F)CC3)CC[C@@H]12", "note": "[Compound 1394, 4-(3-(4-(6-(((1S,3aS,3bR,5aS,10aS,10bS,12aS)-10a,12a-dimethyl-1,2,3,3a,3b,4,5,5a,6,7,10,10a,10b,11,12,12a-hexadecahydrocyclopenta[5,6]naphtho[1,2-f]indazol-1-yl)oxy)hexanoyl)piperazine-1-carbonyl)-4-fluorobenzyl)phthalazin-1(2H)-one]", "values": [{"measurement": "IC50", "setting": "Human recombinant PARP2", "result": "0.001 to 0.01", "unit": "µM"}, {"measurement": "IC50", "setting": "[1]", "result": "1 to 10", "unit": "µM"}]}
